Measurements published in patent publication US5739104A, “Anti-fungal agents” (Schering Corporation, priority 1995, dated 1998).
Starred links: 1 amine or outer side, 2 acyl side, 3 side chain; linkers in the order of their positions; H or OH if unused. Non-standard residues stand in square brackets, D forms with d. Residues, ends and D or L forms follow the SMILES beside them. X1 = O=C([C@H](O[*:1])C1CCCCC1)[*:2]; X2 = O=C([C@H](O[*:1])c1ccccc1)[*:2]; X3 = O=C([C@H](O[*:1])C1CCCC1)[*:2]; X4 = O=C([C@@H](O[*:1])C1CC1)[*:2]; NMeF = CN[C@@H](Cc1ccccc1)C(=O)O; NMeT = CN[C@H](C(=O)O)[C@@H](C)O; aIle = CC[C@@H](C)[C@H](N)C(=O)O; NMeV = CN[C@H](C(=O)O)C(C)C; dHiv = CC(C)[C@@H](O)C(=O)O; Pip = O=C(O)[C@@H]1CCCCN1; Aze = O=C(O)[C@@H]1CCN1

How the values were obtained:
[1] = system: Candida albicans, Candida tropicalis, Candida stellatoidea, Candida parapsilosis, Candida krusei; assay: In vitro anti-fungal microtiter minimum inhibitory concentration (MIC) test, geometric mean over Candida strains; format: cell-based
Experimental: The geometric mean is taken from the following strains
Candida stellatoidea C184
The minimum inhibitory concentrations (GMMICs-R(μg/ml) for Ca (SDB) Ca (EMEM) (Derm) and (Asp) for the compounds of formula I of the invention are as shown in Table 2 above.
The minimum inhibitory concentrations were determined in accordance with the procedure set forth just below.
In vitro anti-fungal activity was determined in microtiter minimum inhibitory concentration (MIC) tests using Yeast Nitrogen Broth (YNB without amino acids, Difco., Detroit, Mich.) at pH 5.4. Yeasts were grown overnight in Sabouraud Dextrose Broth at 28° C. with shaking, and concentrations adjusted in sterile saline using a spectrophoptometer at 540 mμ. Compounds were dissolved in various vehicles and diluted in media to twice the final concentrations. The Cetus Pro/Pette system was used to serially dilute 50 μl in round bottom 96 well plates (Falcon, Lincoln Park, N.J.). The turbidometrically adjusted yeast suspensions were diluted 1:3,000 in YNB. These dilutions when added to the wells, produced a final inoculum of 3×10^3 /ml. Plates were incubated at 37° C. for 48 hours. MICs were defined as the lowest concentrations of compound that prevented visible growth. MICs were taken against the following organisms and expressed in the table above as the geometric mean.

C. Albicans, C-43 = assay: In vivo anti-fungal activity, C. albicans infection study in mice; details: once a day for 4 days starting 4 hours post infection
Experimental: In vivo anti-fungal activity for compounds of formula I of the invention was determined by using the test protocol set forth in Cacciapuoti et al, ANTIMICROBIAL AGENTS AND CHEMOTHERAPY, Vol.36, No. 1, January 1992, p. 64-67, which is hereby incorporated by reference. The specific test protocol used to obtain the data given below, appears in the just above mentioned article at pages 64 and 65 under the heading "C. albicans infection studies". Data obtained from this test protocol are as follows:
The numbering for the compounds tested is the same as the numbering used for the compounds in the rest of the application. The mice used in the above experiment were Charles River, white, male, mice weighing between 18 and 20 grams. The organism used to infect the mice was C. Albicans, C-43, 1XE6 CFU/mice, 0.1 M1 IV. The treatment was once a day for 4 days starting 4 hours post infection for those compounds which have a * next to them. For those compounds which have no * next to them, the treatment was once a day for 4 days starting 24 hours post infection. The dose was 0.1 ml/mouse in either case. The vehicle used with the compounds was Tween 80:Ethanol:PBS (1:9:40 or 2%:18%:80%)

[2] = EMEM, geometric mean over 14 Candida strains, 37° C., 48 hours
[3] = SDB, geometric mean over 14 Candida strains, 37° C., 48 hours

**Q.** What does the source list for CC[C@@H](C)[C@@H]1NC(=O)[C@@H]2CCCN2C(=O)[C@H](Cc2ccccc2)N(C)C(=O)[C@H](Cc2ccccc2)NC(=O)[C@H](C(C)C)N(C)C(=O)[C@@H](c2ccccc2)OC(=O)[C@H]([C@@H](C)O)N(C)C(=O)[C@H](CC(C)C)NC(=O)[C@H](C(C)C)N(C)C1=O [Compound 7] (cyclo(F[NMeF]P[aIle][NMeV]L[NMeT][X2][NMeV]))?
**A.** Geo. Mean MICs (μg/ml) Ca. (EMEM) ([1]; 48 h): 0.710 µg/mL; Geo. Mean MICs (μg/ml) Ca. (SDB) ([1]; 48 h): 0.170 µg/mL

**Q.** What does the source list for CC[C@@H](C)[C@@H]1NC(=O)[C@@H]2CCCCN2C(=O)[C@H](Cc2ccccc2)N(C)C(=O)[C@H](Cc2ccccc2)NC(=O)[C@H](C(C)C)N(C)C(=O)[C@@H](C2CCCCC2)OC(=O)[C@H]([C@@H](C)O)N(C)C(=O)[C@H](CC(C)C)NC(=O)[C@H](C(C)C)N(C)C1=O [Compound 9] (cyclo(F[NMeF][Pip][aIle][NMeV]L[NMeT][X1][NMeV]))?
**A.** Geo. Mean MICs (μg/ml) Ca. (EMEM) ([1]; 48 h): 0.475 µg/mL; Geo. Mean MICs (μg/ml) Ca. (SDB) ([1]; 48 h): 0.290 µg/mL

**Q.** How did the “Geo. Mean MICs (μg/ml) Ca. (EMEM)” value ([1]; 48 h) turn out when CC[C@@H](C)[C@@H]1NC(=O)[C@@H]2CCCN2C(=O)[C@H](Cc2ccccc2)N(C)C(=O)[C@H](Cc2ccccc2)NC(=O)[C@H](C(C)C)N(C)C(=O)[C@@H](C(C)C)OC(=O)[C@H]([C@@H](C)O)N(C)C(=O)[C@H](CC(C)C)NC(=O)[C@H](C(C)C)N(C)C1=O [Compound 4] (cyclo(F[NMeF]P[aIle][NMeV]L[NMeT][dHiv][NMeV])) was run?
**A.** The value was 0.500 µg/mL.

**Q.** And the “Geo. Mean MICs (μg/ml) Ca. (SDB)” value ([1]; 48 h)?
**A.** Its value is 0.032 µg/mL.

**Q.** Which “Geo. Mean MICs (μg/ml) Ca. (EMEM)” value ([1]; 48 h) does the source give for CC[C@@H](C)[C@@H]1NC(=O)[C@@H]2CCCN2C(=O)[C@H](Cc2ccccc2)N(C)C(=O)[C@H](Cc2ccccc2)NC(=O)[C@H](C(C)C)N(C)C(=O)[C@@H](C2CCCC2)OC(=O)[C@H]([C@@H](C)O)N(C)C(=O)[C@H](CC(C)C)NC(=O)[C@H](C(C)C)N(C)C1=O [Compound 6] (cyclo(F[NMeF]P[aIle][NMeV]L[NMeT][X3][NMeV])) here?
**A.** The value was 0.500 µg/mL.

**Q.** What about the “Geo. Mean MICs (μg/ml) Ca. (SDB)” value ([1]; 48 h) of the same molecule?
**A.** The value was 0.090 µg/mL.

**Q.** How did the “Geo. Mean MICs (μg/ml) Ca. (EMEM)” value ([1]; 48 h) turn out when CC[C@@H](C)[C@@H]1NC(=O)[C@@H]2CCCN2C(=O)[C@H](Cc2ccccc2)N(C)C(=O)[C@H](Cc2ccccc2)NC(=O)[C@H](C(C)C)N(C)C(=O)[C@H](C2CC2)OC(=O)[C@H]([C@@H](C)O)N(C)C(=O)[C@H](CC(C)C)NC(=O)[C@H](C(C)C)N(C)C1=O [Compound 8] (cyclo([X4][NMeV]F[NMeF]P[aIle][NMeV]L[NMeT])) was run?
**A.** The value was 0.780 µg/mL.

**Q.** And the “Geo. Mean MICs (μg/ml) Ca. (SDB)” value ([1]; 48 h)?
**A.** Its value is 0.133 µg/mL.

**Q.** Which results are given for CC[C@@H](C)[C@@H]1NC(=O)[C@@H]2CCCN2C(=O)[C@H](Cc2ccccc2)N(C)C(=O)[C@H](Cc2ccccc2)NC(=O)[C@H](C(C)C)N(C)C(=O)[C@@H](C2CCCCC2)OC(=O)[C@H]([C@@H](C)O)N(C)C(=O)[C@H](CC(C)C)NC(=O)[C@H](C(C)C)N(C)C1=O [Compound 1, Cyclo-depsi-N-methyl-threonyl-(2-hydroxyl-2-cyclohexylacetyl)-N-methylvalyl-phenylanalyl-N-methylphenylanalyl-prolyl-allo-isoleucyl-N-methylvalyl-leucine] (cyclo(F[NMeF]P[aIle][NMeV]L[NMeT][X1][NMeV]))?
**A.** % Survival (C. Albicans, C-43; 5 MPK IV): 60%; CFUs (GM) (C. Albicans, C-43; 5 MPK IV): 6.90; % Survival (C. Albicans, C-43; 5 MPK PO): 70%; CFUs (GM) (C. Albicans, C-43; 5 MPK PO): 6.68; % Survival (C. Albicans, C-43; 10 MPK IV): 70%; CFUs (GM) (C. Albicans, C-43; 10 MPK IV): 7.11; % Survival (C. Albicans, C-43; 10 MPK PO): 100%; CFUs (GM) (C. Albicans, C-43; 10 MPK PO): 6.01; % Survival (C. Albicans, C-43; 20 MPK PO): 100%; CFUs (GM) (C. Albicans, C-43; 20 MPK PO): 6.38; % Survival (C. Albicans, C-43; 40 MPK PO): 100%; CFUs (GM) (C. Albicans, C-43; 40 MPK PO): 6.52; Geo. Mean MICs (μg/ml) Ca. (EMEM) [1, 2]: 0.288 µg/mL; Geo. Mean MICs (μg/ml) Ca. (SDB) [1, 3]: 0.018 µg/mL

**Q.** How did the “Geo. Mean MICs (μg/ml) Ca. (EMEM)” value ([1]; 48 h) turn out when CC[C@@H](C)[C@@H]1NC(=O)[C@@H]2CCN2C(=O)[C@H](Cc2ccccc2)N(C)C(=O)[C@H](Cc2ccccc2)NC(=O)[C@H](C(C)C)N(C)C(=O)[C@@H](C2CCCC2)OC(=O)[C@H]([C@@H](C)O)N(C)C(=O)[C@H](CC(C)C)NC(=O)[C@H](C(C)C)N(C)C1=O [Compound 5] (cyclo([Aze][aIle][NMeV]L[NMeT][X3][NMeV]F[NMeF])) was run?
**A.** The value was 0.195 µg/mL.

**Q.** And the “Geo. Mean MICs (μg/ml) Ca. (SDB)” value ([1]; 48 h)?
**A.** The value was 0.015 µg/mL.

**Q.** Which results are given for CC[C@@H](C)[C@@H]1NC(=O)[C@@H]2CCN2C(=O)[C@H](Cc2ccccc2)N(C)C(=O)[C@H](Cc2ccccc2)NC(=O)[C@H](C(C)C)N(C)C(=O)[C@@H](C2CCCCC2)OC(=O)[C@H]([C@@H](C)O)N(C)C(=O)[C@H](CC(C)C)NC(=O)[C@H](C(C)C)N(C)C1=O [Compound 2, Cyclo-depsi-N-methyl-threonyl-(2-hydroxy-2-cyclohexylacetyl)-N-methylvalyl-phenylalanyl-N-methylphenylalanyl-azetidinyl-allo-isoleucyl-N-methylvalyl-leucine] (cyclo([Aze][aIle][NMeV]L[NMeT][X1][NMeV]F[NMeF]))?
**A.** Geo. Mean MICs (μg/ml) Ca. (EMEM) [1, 2]: 0.353 µg/mL; Geo. Mean MICs (μg/ml) Ca. (SDB) [1, 3]: 0.062 µg/mL
